Experimental data: US10703743B2 (priority 2010, dated 2020)
Where two headings read alike, the source gives them in different places.

Experiments:
[1] = target: gp120-CD4 interaction (Human immunodeficiency virus type 1 group M subtype B, UniProt P03375); experiment: biochemical; format: binding, HIV-1
[2] = tested on: MT-2; experiment: MT-2 activity; format: cell-based; conditions: Homo sapiens, MT2
[3] = tested on: HIV-1 isolate HXBc2; experiment: viral inhibition assay, HIV-1 isolate HXBc2; format: cell-based; conditions: Human immunodeficiency virus 1, TZM-b1, read-out: IC50 HXBc2
Experimental: (§1) In this assay, viral inhibition was determined by HIV Tat-induced luciferase (Luc) reporter gene expression after a single round of virus infection in TZM-b1 cells according to the method of Platt, et al., J. Virol. 1998, 72, 2855-64.

[4] = tested on: HIV-1 isolate ADA; experiment: viral inhibition assay, HIV-1 isolate ADA; format: cell-based
Experimental: as §1

[5] = tested on: HIV-1 isolate JR-FL; experiment: viral inhibition assay, HIV-1 isolate JR-FL; format: cell-based; conditions: Human immunodeficiency virus 1, TZM-b1, read-out: IC50 JR-FL
Experimental: as §1

[6] = tested on: HIV-1 isolate BaL; experiment: viral inhibition assay, HIV-1 isolate BaL; format: cell-based
Experimental: as §1

[7] = tested on: HIV-1 isolate SF162; experiment: viral inhibition assay, HIV-1 isolate SF162; format: cell-based; conditions: Human immunodeficiency virus 1, TZM-b1, read-out: IC50 SF162
Experimental: as §1

| Structure (SMILES) | IC50 [1] [nM] | IC50 [2] [nM] | also measured |
| --- | --- | --- | --- |
| COc1ccc(-c2ccc(CNC(=O)COCCOCCOCCOCCn3cc(COCCOCCOCCOCCNc4ccc([N+](=O)[O-])cc4[N+](=O)[O-])nn3)o2)c2[nH]cc(C(=O)C(=O)N3CCN(C(=O)c4cc(O)cc(O)c4)CC3)c12 | 745 | 230 |  |
| COc1ccc(-c2ccc(CNC(=O)COCCOCCOCCOCCn3cc(COCCOCCOCCOCCNc4ccc([N+](=O)[O-])cc4[N+](=O)[O-])nn3)o2)c2[nH]cc(C(=O)C(=O)N3CCN(C(=O)c4cccnc4)CC3)c12 | 3700 | 1300 |  |
| COc1ccc(-c2ccc(CNC(=O)COCCOCCOCCOCCn3cc(COCCOCCOCCOCCNc4ccc([N+](=O)[O-])cc4[N+](=O)[O-])nn3)o2)c2[nH]cc(C(=O)C(=O)N3CCN(C(=O)c4cccc(O)c4)CC3)c12 | 200 | 90 |  |
| COc1ccnc2[nH]cc(C(=O)C(=O)N3CCN(C(=O)c4ccccc4)C[C@H]3C)c12 [BMS-378806, 4-benzoyl-1-(2-(4-methoxy-1H-pyrrolo(2,3-b)pyridin-3-yl)-1,2-dioxoethyl)-2-methyl-, (2R)-Piperazine, reference compound] |  |  | IC50 [3]: 31.9 nM; IC50 ([4]; Human immunodeficiency virus 1, HIV Tat-induced luciferase reporter gene expression after a single round of virus infection in TZM-b1 cells, read-out: IC50 ADA): 344 nM; IC50 [5]: 2600 nM; IC50 BaL ([6]; HIV Tat-induced luciferase reporter gene expression after a single round of virus infection in TZM-b1 cells): dnc; IC50 [7]: 359 nM |
| COc1ccc(-c2ccc(CNC(=O)COCCOCCOCCOCCn3cc(COCCOCCOCCOCCNc4ccc([N+](=O)[O-])cc4[N+](=O)[O-])nn3)o2)c2[nH]cc(C(=O)C(=O)N3CCN(C(=O)c4cccc(C)c4)CC3)c12 | 1360 | ~600 |  |
| COc1ccc(-c2ccc(CNC(=O)COCCOCCOCCOCCn3cc(COCCOCCOCCOCCNc4ccc([N+](=O)[O-])cc4[N+](=O)[O-])nn3)o2)c2[nH]cc(C(=O)C(=O)N3CCN(C(=O)c4ccc5ccccc5c4)CC3)c12 | 5240 | ~5000 |  |
| COc1ccc(-c2ccc(CNC(=O)COCCOCCOCCOCCn3cc(COCCOCCOCCOCCNc4ccc([N+](=O)[O-])cc4[N+](=O)[O-])nn3)o2)c2[nH]cc(C(=O)C(=O)N3CCN(C(=O)c4ccc(O)cc4)CC3)c12 | 239 | 90 |  |
| COc1ccc(-c2ccc(CNC(=O)COCCOCCOCCOCCn3cc(COCCOCCOCCOCCNc4ccc([N+](=O)[O-])cc4[N+](=O)[O-])nn3)o2)c2[nH]cc(C(=O)C(=O)N3CCN(C(=O)c4ccc(C)cc4)CC3)c12 | 447 | 25 |  |
| COc1ccc(-c2ccc(CNC(=O)COCCOCCOCCOCCOCCOCCn3cc(COCCOCCOCCOCCNc4ccc([N+](=O)[O-])cc4[N+](=O)[O-])nn3)o2)c2[nH]cc(C(=O)C(=O)N3CCN(C(=O)c4ccccc4)CC3)c12 [C5-furan] |  |  | IC50 [3]: 10.3 nM; IC50 ([4]; Human immunodeficiency virus 1, TZM-b1, read-out: IC50 ADA): 6.35 nM; IC50 [5]: 0.72 nM; IC50 ([6]; Human immunodeficiency virus 1, BAL, TZM-b1, read-out: IC50 BaL): 34.8 nM; IC50 [7]: 309 nM |
| COc1ccc(-c2ccc(CNC(=O)COCCOCCOCCOCCn3cc(COCCOCCOCCOCCNc4ccc([N+](=O)[O-])cc4[N+](=O)[O-])nn3)o2)c2[nH]cc(C(=O)C(=O)N3CCN(C(=O)c4ccccn4)CC3)c12 | 620 | 48 |  |
| COc1ccc(-c2ccc(CNC(=O)COCCOCCOCCOCCn3cc(COCCOCCOCCOCCNc4ccc([N+](=O)[O-])cc4[N+](=O)[O-])nn3)o2)c2[nH]cc(C(=O)C(=O)N3CCN(C(=O)c4ccccc4C)CC3)c12 | 5140 | ~25000 |  |
| CCc1ccc(C(=O)N2CCN(C(=O)C(=O)c3c[nH]c4c(-c5ccc(CNC(=O)COCCOCCOCCOCCn6cc(COCCOCCOCCOCCNc7ccc([N+](=O)[O-])cc7[N+](=O)[O-])nn6)o5)ccc(OC)c34)CC2)cc1 | 469 | ~600 |  |
| COc1ccc(-c2ccc(CNC(=O)COCCOCCOCCOCCn3cc(COCCOCCOCCOCCNc4ccc([N+](=O)[O-])cc4[N+](=O)[O-])nn3)o2)c2[nH]cc(C(=O)C(=O)N3CCN(C(=O)c4ccncc4)CC3)c12 | 4700 | 9300 |  |
| COc1ccc(-c2ccc(CNC(=O)COCCOCCOCCOCCn3cc(COCCOCCOCCOCCNc4ccc([N+](=O)[O-])cc4[N+](=O)[O-])nn3)o2)c2[nH]cc(C(=O)C(=O)N3CCN(C(=O)c4ccc(CO)cc4)CC3)c12 | 422 | ~1000 |  |
| COc1ccc(-c2ccc(CNC(=O)COCCOCCOCCOCCn3cc(COCCOCCOCCOCCNc4ccc([N+](=O)[O-])cc4[N+](=O)[O-])nn3)o2)c2[nH]cc(C(=O)C(=O)N3CCN(C(=O)c4ccc(C(C)C)cc4)CC3)c12 | 953 |  |  |
| COc1ccc(-c2ccc(CNC(=O)COCCOCCOCCOCCn3cc(COCCOCCOCCOCCNc4ccc([N+](=O)[O-])cc4[N+](=O)[O-])nn3)o2)c2[nH]cc(C(=O)C(=O)N3CCN(C(=O)c4ccccc4O)CC3)c12 | 490 | 200 |  |
